Experimental data reported in patent US8906829B2, “Synergistic algicidal compositions including hydrazone derivatives and copper” (Dow AgroSciences LLC, priority 2010, dated 2014).

How the values were obtained:
[1] = system: C. reinhardtii CC-1928; assay: Effect of copper on activity of hydrazones: in vitro growth inhibition of C. reinhardtii in TAP Cu minus / TAP Cu plus medium (Example 10); assay type: cell-based, Chlamydomonas reinhardtii; conditions: test compound 1 μg/mL, 48 h; for inhibition of growth at 1 µg/mL: Chlamydomonas reinhardtii, TAP Cu minus medium, read-out: % Inhn. Minus Copper Observed; for % Inhn. Plus Copper Observed: TAP Cu plus medium (CuCl2)
Procedure: In vitro toxicity assays against C. reinhardtii CC-1928 (wild type mt+137c green in dark subclone) obtained from the Chlamydomonas Resource Center at Duke University were conducted using TAP liquid growth medium described by Gorman and Levine Proc. Natl. Acad. Sci. USA 1965, 54, 1665-1669 except that CuSO4.5H2O, normally included as a component of Hutner's trace element stock solution (Hutner et al. Proc. Am. Philos. Soc. 1950, 94, 152-170), was omitted. The TAP medium lacking Cu (TAP Cu minus) was prepared by adding 400 mg NH4Cl, 10 mL of 100× Tris-Acetate (242 g Tris-base and 100 mL glacial acetic acid in 1000 mL milli Q water), and 8.3 mL of 120.5× phosphate buffer (14.34 g K2HPO4 and 7.26 g KH2PO4 in 1000 mL milli Q water) to milli Q water to make a total volume of 1 liter. The medium was treated with 0.5 g Chelex 100 resin (Bio-Rad Analytical grade, 50-100 mesh, sodium form, cat#142-2822) by stirring at room temperature for 1 hour. 900 mL were decanted and 45.9 mg of CaCl2.2H2O, 90 mg of MgSO4.7H2O and 0.9 mL Hutner's trace elements lacking CuSO4.5H2O were added and the solution was filter-sterilized. Medium containing copper (TAP Cu plus) was prepared by adding CuCl2.2H2O to the TAP Cu minus medium at 20 μM. Test compounds were dissolved in dimethylsulfoxide (DMSO) at 2 mg/mL then dilutions in TAP Cu minus and TAP Cu plus media were prepared in sterilized microcentrifuge tubes at 2 μg/mL. 100 μL aliquots of diluted compound were dispensed into flat-bottomed 96-well microtiter plates. C. reinhardtii was maintained under 12 h of light on TAP agar plates at 18° C. A loopful of cells was added to 50 mL of TAP Cu minus medium and the culture incubated with shaking at 200 rpm at 27° C. for 24 h. The culture (10 to 20 mL aliquot) was centrifuged in a bench centrifuge at 2000 rpm for 2 min. The resulting cell pellet was resuspended in 5 mL sterile milli Q water (which had been treated with Chelex 100 resin using 0.5 g resin per liter of water by stirring at room temperature for 1 h), and recentrifuged. The cells were resuspended in TAP Cu minus medium, and the suspension adjusted to 2×10^5 spores per mL. Microtiter plates containing compounds as described above were inoculated with 100 μL of this cell suspension and the plates incubated at 27° C. for 48 h before assessing algal growth by measuring light scattering in a NepheloStar plate-reader. Growth inhibition was determined by comparing growth in the presence of test compound with growth in control wells lacking test compound. Results for growth inhibition by test compounds at 1 μg/mL in TAP Cu plus medium (% Inhn Plus Copper Observed) were compared with predicted values (% Inhn Plus Copper Predicted) that were calculated using the formula set forth by S. R. Colby in Weeds 1967, 15, 20-22 based on results obtained for the same compounds in TAP Cu minus medium (% Inhn Minus Copper Observed). […] Results illustrate that hydrazones and copper produce a synergistic algicidal effect towards C. reinhardtii.

[2] = system: Synechocystis sp. strain 6803; assay: Effect of copper on activity of hydrazones: in vitro growth inhibition of Synechocystis in BG-11 Cu minus / Cu plus medium (Example 11); assay type: cell-based; conditions: 72 h; for % Inhn. Plus Copper Observed: BG-11 Cu plus medium
Procedure: In vitro toxicity assays against the cyanobacterium (blue-green alga) Synechocystis sp. strain 6803 were conducted using BG-11 medium except that copper micronutrient, normally included as CuSO4.5H2O, was omitted. The medium, termed BG-11 Cu minus, was prepared by dissolving 1.5 g NaNO3, 40 mg K2HPO4, 6 mg citric acid, 1 mg Na2EDTA and 20 mg Na2CO3 in 1 liter of milli Q water and treating the solution with 0.5 g Chelex 100 resin (Bio-Rad Analytical grade, 50-100 mesh, sodium form, cat#142-2822) by stifling at room temperature for 1 h. 900 mL were decanted and 67.5 mg MgSO4.7H2O, 32.4 mg […], 5.4 mg ferric ammonium citrate and 0.9 mL trace metal mix A5 without copper (2.86 g H3BO3, 1.81 g MnCl2.4H2O, 222 mg ZnSO4.7H2O, 390 mg Na2MoO4.2H2O and Co(NO3)2.6H2O in 1 L Milli Q water) was added. The pH was adjusted to 7.1 and the medium was filter-sterilized. Medium containing copper (BG-11 Cu plus) was prepared by adding CuCl2.2H2O to the BG-11 Cu minus medium at 0.2 μM. Test compounds were dissolved in dimethylsulfoxide (DMSO) at 2 mg/mL then appropriate dilutions in BG-11 Cu minus and BG-11 Cu plus media were prepared in sterilized microcentrifuge tubes. 100 μL aliquots were dispensed into flat-bottomed 96-well microtiter plates. Synechocystis was maintained under 24 h of light on BG-11 agar plates at 27° C. A loopful of cells was added to 50 mL of BG-11 Cu minus growth medium and the culture was incubated with shaking at 200 rpm at 27° C. for 24 h. The culture (10 to 20 mL aliquot) was centrifuged in a bench centrifuge at 2400 rpm for 2 min. The resulting cell pellet was resuspended in 5 mL sterile milli Q water (which had been treated with Chelex 100 resin using 0.5 g resin per liter of water by stirring at room temperature for 1 h), and recentrifuged. The cells were resuspended in BG-11 Cu minus medium, and the suspension adjusted to 4×10^5 spores per mL. Microtiter plates containing compounds as described above were inoculated with 100 μL of this cell suspension and the plates incubated at 27° C. for 72 h before assessing algal growth by measuring light scattering in a NepheloStar plate reader. Growth inhibition was determined by comparing growth in the presence of test compound with growth in control wells lacking test compound. Results for growth inhibition by test compounds in BG-11 Cu plus medium (% Inhn Plus Copper Observed) were compared with predicted values (% Inhn Plus Copper Predicted) that were calculated using the formula set forth by S. R. Colby in Weeds 1967, 15, 20-22 based on-results obtained for the same compounds in BG-11 Cu minus medium (% Inhn Minus Copper Observed) and the inhibition attributed to copper chloride alone, as determined by comparing growth in copper-minus and copper-plus media without any test compound across experiments. Results illustrate that hydrazones and copper produce a synergistic algicidal effect towards Synechocystis.

[3] = Synechocystis, Test Concn. 0.05 μg/mL, BG-11 Cu minus medium, read-out: % Inhn. Minus Copper Observed
[4] = Synechocystis, Test Concn. 0.0125 μg/mL, BG-11 Cu minus medium, read-out: % Inhn. Minus Copper Observed

| SMILES | inhibition of growth at 1 µg/mL [1] [%] | % Inhn. Plus Copper Observed [1] [%] | inhibition of growth at 0.05 µg/mL [2, 3] [%] | % Inhn. Plus Copper Observed ([2]; Test Concn. 0.05 μg/mL) [%] | melting point [°C] | inhibition of growth at 0.0125 µg/mL [2, 4] [%] | % Inhn. Plus Copper Observed ([2]; Test Concn. 0.0125 μg/mL) [%] | inhibition of growth at 0.025 µg/mL ([2]; Synechocystis, Test Concn. 0.025 μg/mL, BG-11 Cu minus medium, read-out: % Inhn. Minus Copper Observed) [%] | % Inhn. Plus Copper Observed ([2]; Test Concn. 0.025 μg/mL) [%] |
| --- | --- | --- | --- | --- | --- | --- | --- | --- | --- |
| Cc1cccc(C(=O)N/N=C/c2c(Cl)ccc(Cl)c2O)c1 [Compound 42] | 10 | 96 | 10 | 94 | 214 to 216 | – | – | – | – |
| O=C(N/N=C/c1c(Cl)ccc(Cl)c1O)c1ccc(F)cc1 [Compound 43] | 9 | 93 | 23 | 95 | 264 to 267 | – | – | – | – |
| O=C(N/N=C/c1c(Cl)ccc(Cl)c1O)c1cccc(Cl)c1 [Compound 44] | 11 | 94 | 61 | 93 | 232 to 234 | – | – | – | – |
| O=C(N/N=C/c1c(Cl)ccc(Cl)c1O)c1ccccc1O [Compound 46] | 0 | 92 | – | – | 260 to 262 | 37 | 80 | – | – |
| O=C(N/N=C/c1cc(Cl)cc(C(F)(F)F)c1O)c1cccc(Cl)c1 [Compound 47] | -5 | 77 | – | – | 228 to 229 | 24 | 60 | – | – |
| O=C(N/N=C/c1cc(Cl)cc(C(F)(F)F)c1O)c1ccccc1O [Compound 48] | 18 | 92 | 32 | 95 | 258 to 260 | – | – | – | – |
| Cc1cccc(C(=O)N/N=C/c2cccc(Cl)c2O)c1 [Compound 50] | 6 | 97 | -7 | 95 | 166 to 169 | – | – | – | – |
| O=C(N/N=C/c1cccc(Cl)c1O)c1cccc(Cl)c1 [Compound 51] | -13 | 96 | 17 | 97 | 174 to 178 | – | – | – | – |
| O=C(N/N=C/c1cccc(Cl)c1O)c1ccc([N+](=O)[O-])cc1 [Compound 53] | 8 | 88 | 45 | 94 | 284 to 287 | – | – | – | – |
| O=C(N/N=C/c1cccc(Cl)c1O)c1ccccc1O [Compound 54] | -8 | 75 | 37 | 88 | 266 to 268 | – | – | – | – |
| Cc1ccc(C(=O)N/N=C/c2cccc(Cl)c2O)c(O)c1 [Compound 55] | -3 | 97 | 68 | 92 | 258 to 266 | – | – | – | – |
| O=C(N/N=C/c1c(C(F)(F)F)ccc(Cl)c1O)c1ccccc1O [Compound 57] | -11 | 95 | 61 | 92 | 278 to 280 | – | – | – | – |
| C/C(=N\NC(=O)c1c(C)cccc1O)c1cc(Cl)cc(Cl)c1O [Compound 58] | 3 | 93 | – | – | 245 | – | – | 46 | 64 |
| C/C(=N\NC(=O)c1ccc(C)cc1)c1cccc(Cl)c1O [Compound 59] | -6 | 92 | 1 | 93 | 195 to 200 | – | – | – | – |
| C/C(=N\NC(=O)c1ccc(Br)cc1)c1cccc([N+](=O)[O-])c1O [Compound 60] | -50 | 89 | – | – | 244 to 252 | 33 | 50 | – | – |
| C/C(=N\NC(=O)c1ccccc1)c1cc(Br)cc(Br)c1O [Compound 61] | -56 | 94 | 61 | 96 | 242 to 245 | – | – | – | – |
| C/C(=N\NC(=O)c1ccc(Cl)cc1)c1cc(F)cc(F)c1O [Compound 62] | 0 | 95 | 60 | 95 | 276 to 280 | – | – | – | – |
